The record followed here is patent US20120220567A1, “BENZO-FUSED OXAZEPINE COMPOUNDS AS STEAROYL-COENZYME A DELTA-9 DESATURASE INHIBITORS” (priority 2009, published 2012).

Where only a bound is given, the exact number is not on record here.

By IC50 is commonly meant the concentration that gives 50% inhibition.

The target in the first test is T1, SCD-1 (Homo sapiens, UniProt O00767).
T1 construct: 50 μg of protein from a HepG2 cell P2 pellet; endogenous in cells; host or cells: HepG2 cells (P2 pellet)
T1 sequence (O00767 1-359): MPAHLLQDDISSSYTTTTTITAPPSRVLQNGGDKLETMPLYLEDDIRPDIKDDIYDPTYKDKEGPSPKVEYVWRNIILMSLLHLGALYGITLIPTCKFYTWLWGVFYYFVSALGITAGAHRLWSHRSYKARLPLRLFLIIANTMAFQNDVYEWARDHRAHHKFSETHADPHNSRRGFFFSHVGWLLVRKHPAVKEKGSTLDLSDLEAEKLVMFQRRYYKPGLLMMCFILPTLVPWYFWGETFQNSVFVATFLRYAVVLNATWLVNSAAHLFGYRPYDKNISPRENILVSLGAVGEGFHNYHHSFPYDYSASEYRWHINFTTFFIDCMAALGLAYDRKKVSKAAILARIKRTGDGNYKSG
Briefly: Stearoyl-CoA desaturase assay (HepG2 cell P2 pellet). The format is biochemical. The note with it: Table 1, compounds of formula (Ia); protein from HepG2 cell P2 pellet, 20 μM stearoyl-CoA, 15 min at 25° C.; read-out: Ave IC50.
Take `COc1ccc(CN2CCC3(CCN(C(=O)CNC(C)=O)CC3)Oc3ccccc32)cc1F` [Compound 31]: the IC50 lay in the range of 500 to 10000 nM.

For the molecule `CC(=O)NCC(=O)N1CCC2(CC1)CCN(Cc1cccc(C(F)(F)F)c1)c1cccc(F)c1O2` [Compound 45], the IC50 was 500 to 10000 nM.

Staying with this test, now noted: Table 2, compounds of formula (Ib); protein from HepG2 cell P2 pellet, 20 μM stearoyl-CoA, 15 min at 25° C.; read-out: Ave IC50.
Take `Cn1cncc1CNC(=O)c1cnc(N2CCC3(CC2)CCN(Cc2ccc(C(C)(C)C)cc2)c2cccc(F)c2O3)s1` [Compound 121]: the IC50 was greater than 10000 nM.

In the case of `CC(C)(C)OC(=O)CCNC(=O)c1cnc(N2CCC3(CC2)CCN(Cc2ccc(C(C)(C)C)cc2)c2cccc(F)c2O3)s1` [Compound 116], the IC50 lay in the range of 0.5 to 49 nM.

Consider `CC(C)(C)CCNC(=O)c1cnc(N2CCC3(CC2)CCN(Cc2ccc(C(C)(C)C)cc2)c2cccc(F)c2O3)s1` [Compound 122], for which the IC50 is greater than 10000 nM.

Consider `CC(C)(C)c1ccc(CN2CCC3(CCN(c4ncc(C(=O)NCCCO)s4)CC3)Oc3c(F)cccc32)cc1` [Compound 96], for which the IC50 was in the range of 0.5 to 49 nM.

`C[S+]([O-])CCNC(=O)c1cnc(N2CCC3(CC2)CCN(Cc2ccc(C(C)(C)C)cc2)c2cccc(F)c2O3)s1` (stereo not shown) [Compound 93]: the IC50 was 50 to 499 nM.

With `COCCNC(=O)c1cnc(N2CCC3(CC2)CCN(Cc2ccc(C(C)(C)C)cc2)c2cccc(F)c2O3)s1` [Compound 103], the IC50 lay within 50 to 499 nM.

As to `CC(C)(C)c1ccc(CN2CCC3(CCN(c4ncc(C(=O)NCCn5ccnc5)s4)CC3)Oc3c(F)cccc32)cc1` [Compound 119], the IC50 is greater than 10000 nM.

Still in this test, the particulars now being: Table 3, compounds of formula (Ic); protein from HepG2 cell P2 pellet, 20 μM stearoyl-CoA, 15 min at 25° C.; read-out: Ave IC50.
With `CCCNC(=O)c1ccc(N2CCC3(CC2)CCN(Cc2cccc(C(F)(F)F)c2)c2ccccc2O3)nn1` [Compound 157], the IC50 lay in the range of 50 to 499 nM.

As for `CC(C)(C)c1ccc(CN2CCC3(CCN(c4ccc(C(=O)O)cn4)CC3)Oc3c(F)cccc32)cc1` [Compound 145], the IC50 fell in the range of 50 to 499 nM.

`COC(=O)CCNC(=O)c1ccc(N2CCC3(CC2)CCN(Cc2cccc(C(F)(F)F)c2)c2cccc(F)c2O3)nn1` [Compound 173]: the IC50 is 0.5 to 49 nM.

As for `CC(C)c1ccc(CN2CCC3(CCN(c4ccc(C(=O)NCCC5CC5)nn4)CC3)Oc3ccccc32)cc1` [Compound 181], the IC50 lay within 0.5 to 49 nM.
